Values of other authors as cited in US20240074994A1, “COMPOSITION OF CHLORHEXIDINE” (priority 2022, published 2024).

What was measured:
[1] = system: HSV-1; details: 0.2% applied topically onto HSV-1 infected forehead skin of mice
[2] = system: HSV-1; details: Vero cell monolayers

Substance: Chlorhexidine
- development of viral lesions [1]: moderately reduced
- viral titers in the skin and trigeminal ganglia [1]: moderately reduced
- cytolytic activity of HSV-1 [2]: moderately, but significantly, inhibited
- replication of HSV-1 [2]: moderately, but significantly, inhibited
